In ChEMBL document CHEMBL2331181, “Synthesis and in vitro cytotoxic activity evaluation of novel heterocycle bridged carbothioamide type isosteviol derivatives as antitumor agents” (Bioorg Med Chem Lett, 2013):

Assays:
Type in all cases: functional, cell-based
[1] = test system: Raji; experiment: Cytotoxicity against human Raji cells after 48 hrs by MTT assay
[2] = test system: HeLa; experiment: Cytotoxicity against human HeLa cells after 48 hrs by MTT assay
[3] = test system: A549; experiment: Cytotoxicity against human A549 cells after 48 hrs by MTT assay; details: A549, 48 h
[4] = test system: SGC-7901; experiment: Cytotoxicity against human SGC7901 cells after 48 hrs by MTT assay; details: SGC-7901, 48 h

Compound	IC50 [1]	IC50 [2]	IC50 [3]	IC50 [4]
CCOC(=O)[C@]1(C)CCC[C@@]2(C)[C@@H]3CC[C@@]4(C)C[C@]3(CC[C@@H]21)c1cn(C(=S)Nc2cccc(C)c2)nc14	14.2 µM	> 50 µM	31.9 µM	15.3 µM
CCOC(=O)[C@]1(C)CCC[C@@]2(C)[C@@H]3CC[C@@]4(C)C[C@]3(CC[C@@H]21)c1cn(C(=S)Nc2ccc(C)cc2)nc14	12.5 µM	40.5 µM	> 50 µM	14.7 µM
CCOC(=O)[C@]1(C)CCC[C@@]2(C)[C@@H]3CC[C@@]4(C)C[C@]3(CC[C@@H]21)c1cn(C(=S)Nc2ccccc2OC)nc14	10.1 µM	> 50 µM	> 50 µM	> 50 µM
CCOC(=O)[C@]1(C)CCC[C@@]2(C)[C@@H]3CC[C@@]4(C)C[C@]3(CC[C@@H]21)c1cn(C(=S)Nc2cccc(OC)c2)nc14	15.1 µM	> 50 µM	23.3 µM	12.5 µM
CCOC(=O)[C@]1(C)CCC[C@@]2(C)[C@@H]3CC[C@@]4(C)C[C@]3(CC[C@@H]21)c1cn(C(=S)Nc2ccc(OC)cc2)nc14	6.51 µM	13.9 µM	17.7 µM	9.65 µM
CCOC(=O)[C@]1(C)CCC[C@@]2(C)[C@@H]3CC[C@@]4(C)C[C@]3(CC[C@@H]21)c1cn(C(=S)Nc2ccccc2[N+](=O)[O-])nc14	19.6 µM	36.9 µM	38.3 µM	16.4 µM
CCOC(=O)[C@]1(C)CCC[C@@]2(C)[C@@H]3CC[C@@]4(C)C[C@]3(CC[C@@H]21)c1cn(C(=S)Nc2cccc([N+](=O)[O-])c2)nc14	16.9 µM	> 50 µM	> 50 µM	16 µM
CCOC(=O)[C@]1(C)CCC[C@@]2(C)[C@@H]3CC[C@@]4(C)C[C@]3(CC[C@@H]21)c1cn(C(=S)Nc2ccc([N+](=O)[O-])cc2)nc14	17.9 µM	36.2 µM	35.3 µM	34.2 µM
CCOC(=O)[C@]1(C)CCC[C@@]2(C)[C@@H]3CC[C@@]4(C)C[C@]3(CC[C@@H]21)c1cn(C(=S)Nc2c(C)cccc2C)nc14	12.1 µM	49 µM	> 50 µM	14.8 µM
CCOC(=O)[C@]1(C)CCC[C@@]2(C)[C@@H]3CC[C@@]4(C)C[C@]3(CC[C@@H]21)c1cn(C(=S)Nc2ccc(Cl)cc2Cl)nc14	24.5 µM	> 50 µM	> 50 µM	20.1 µM
CCOC(=O)[C@]1(C)CCC[C@@]2(C)[C@@H]3CC[C@@]4(C)C[C@]3(CC[C@@H]21)c1cn(C(=S)Nc2cccc(Cl)c2)nc14	16 µM	> 50 µM	39.1 µM	16.9 µM
CCOC(=O)[C@]1(C)CCC[C@@]2(C)[C@@H]3CC[C@@]4(C)C[C@]3(CC[C@@H]21)c1cn(C(=S)Nc2ccc(Cl)cc2)nc14	13 µM	39 µM	20 µM	21.7 µM
CCOC(=O)[C@]1(C)CCC[C@@]2(C)[C@@H]3CC[C@@]4(C)C[C@]3(CC[C@@H]21)c1cn(C(=S)Nc2ccccc2Br)nc14	19.6 µM	43.4 µM	38.1 µM	17.2 µM
CCOC(=O)[C@]1(C)CCC[C@@]2(C)[C@@H]3CC[C@@]4(C)C[C@]3(CC[C@@H]21)c1cn(C(=S)Nc2cccc(Br)c2)nc14	15.8 µM	> 50 µM	24.8 µM	19.6 µM
CCOC(=O)[C@]1(C)CCC[C@@]2(C)[C@@H]3CC[C@@]4(C)C[C@]3(CC[C@@H]21)c1cn(C(=S)Nc2ccc(Br)cc2)nc14	13.9 µM	> 50 µM	24.5 µM	7.06 µM
CCOC(=O)[C@]1(C)CCC[C@@]2(C)[C@@H]3CC[C@@]4(C)C[C@]3(CC[C@@H]21)c1cn(C(=S)Nc2ccccc2C)nc14	15.2 µM	> 50 µM	32.1 µM	38.1 µM
